Measurements reported in ChEMBL document CHEMBL1156363, “Cytotoxic cyclic norterpene peroxides from a Red Sea sponge Diacarnus erythraenus” (J Nat Prod, 2001).

Tests used:
Type in all cases: functional, cell-based
HT-29 = experiment: Cytotoxicity against human HT-29 cells
P388 = experiment: Cytotoxicity against mouse P388 cells
A549 = experiment: Cytotoxicity against human A549 cells

Measured: IC50

C=C(CCCC(C)(C)O)C(=O)CC[C@@]1(C)CC[C@@H]([C@H](C)C(=O)OC)OO1 [AIKUPIKOXIDE D]
> 1 µg/mL: HT-29 | P388 | A549

CC(=O)CCCC(C)(C)C(=O)CC/C(C)=C/CC[C@@]1(C)CC[C@H]([C@H](C)C(=O)O)OO1 [AIKUPIKOXIDE A]
> 1 µg/mL: HT-29 | P388 | A549

C=C1CCCC(C)(C)C1(O)CC[C@@]1(C)CC[C@@H]([C@H](C)C(=O)OC)OO1 (stereo not given in full) [AIKUPIKOXIDE B]
> 1 µg/mL: HT-29 | P388 | A549

COC(=O)[C@@H](C)[C@@H]1CC[C@](C)(CCC(=O)C(C)(C)CCCC(C)=O)OO1 [DIACARPEROXIDE B]
> 1 µg/mL: HT-29 | P388 | A549

CO[C@@]1(C)CCC(C(C)C)=C[C@@H]2[C@H]1CC[C@]2(C)O
> 1 µg/mL: HT-29 | P388 | A549
